Laboratory results published in publication PMC6429214, “Design, Synthesis and Biological Evaluation of Isoxazole-Based CK1 Inhibitors Modified with Chiral Pyrrolidine Scaffolds” (Molecules, 2019).

Tests used:
Assay in all cases: 33PanQinase panel
Format in all cases: biochemical
PYK2 = molecular target: T1, PYK2 (Homo sapiens, UniProt Q14289); conditions: PYK2, 1 µM; read-out: Residual Activity (%)
T1 construct: purchased ProQinase
Protocol: (§1) Figure 5 Dendrogram representation of the selectivity profile of 29d at a concentration of 1 μM in a panel of 320 wild-type kinases (ProQinase, Freiburg, Germany). The residual kinase activity was determined compared to DMSO control. Images were generated using TREEspot Software Tool, DISCOVERX CORPORATION 2010.
(§2) Figure S1. X-ray crystal structure of intermediate compound 25d (ORTEP drawing with ellipsoids at 30% probability). CCDC 1589043 contains the supplementary crystallographic data for this paper. The data can be obtained free of charge from The Cambridge Crystallographic Data Centre via www.ccdc.cam.ac.uk/structures.
(§3) Table S1 Data collection, structure refinement and Ramachrandran plot results of protein crystallization of CK1δ in complex with compound 30a and 30b, respectively.
(§4) Root-mean-square deviations
(§5) Additionally allowed 2.6 2.2
(§6) Table S2. Selectivity profile of compound 29d. The inhibitor has been screened at a concentration of 1 µM over a panel of 320 wild-type protein kinases by ProQinase GmbH (Freiburg, Germany) using an activity-based radiometric 33PanQinase® assay. Results are presented as percentage of residual kinase activity relative to […]
(§7) control. The final DMSO concentration was 1 % in each reaction-mix. Classification of protein kinase families refers to Manning et al. (Manning, G.; Whyte, D. B.; Martinez, R.; Hunter, T.; Sudarsanam, S. The Protein Kinase Complement of the Human Genome. Science 2002, 298, 1912–1934): AGC = containing PKA, PKG, PKC families; […] = containing Cdk, MAPK, GSK3, CLK families; STE = homologs of yeast sterile 7, sterile 11, sterile 20 kinases; TK = tyrosine kinase; TKL = tyrosine kinase-like.
(§8) Kinase name Kinase family Residual Activity (%)

DYRK4 = molecular target: T2, DYRK4 (Homo sapiens, UniProt Q9NR20); conditions: DYRK4, 1 µM; read-out: Residual Activity (%)
T2 construct: purchased ProQinase
Protocol: as §1, §2, §3, §4, §5, §6, §7, §8

WNK2 = molecular target: T3, WNK2 (Homo sapiens, UniProt Q9Y3S1); conditions: WNK2, 1 µM; read-out: Residual Activity (%)
T3 construct: purchased ProQinase
Protocol: as §1, §2, §3, §4, §5, §6, §7, §8

DMPK = molecular target: T4, DMPK (Homo sapiens, UniProt Q09013); conditions: read-out: Residual Activity (%)
T4 construct: purchased ProQinase
Protocol: as §1, §2, §3, §4, §5, §6, §7, §8

FLT3 = molecular target: T5, FLT3 (Homo sapiens, UniProt P36888); conditions: FLT3, 1 µM; read-out: Residual Activity (%)
T5 construct: purchased ProQinase
Protocol: as §1, §2, §3, §4, §5, §6, §7, §8

CDK9/CycK = molecular target: T6, CDK9/CycK (Homo sapiens, UniProt P50750); conditions: read-out: Residual Activity (%)
T6 construct: purchased ProQinase
Protocol: as §1, §2, §3, §4, §5, §6, §7, §8

MINK1 = molecular target: T7, MINK1 (Homo sapiens, UniProt Q8N4C8); conditions: MINK1, 1 µM; read-out: Residual Activity (%)
T7 construct: purchased ProQinase
Protocol: as §1, §2, §3, §4, §5, §6, §7, §8

CK1-gamma3 = molecular target: T8, CK1-gamma3 (Homo sapiens, UniProt Q9Y6M4); conditions: CK1-gamma3, 1 µM; read-out: Residual Activity (%)
T8 construct: purchased ProQinase
Protocol: as §1, §2, §3, §4, §5, §6, §7, §8

ARK5 = molecular target: T9, ARK5 (Homo sapiens, UniProt O60285); conditions: ARK5, 1 µM; read-out: Residual Activity (%)
T9 construct: purchased ProQinase
Protocol: as §1, §2, §3, §4, §5, §6, §7, §8

mTOR = molecular target: T10, mTOR (Homo sapiens, UniProt P42345); conditions: read-out: Residual Activity (%)
T10 construct: purchased ProQinase
Protocol: as §1, §2, §3, §4, §5, §6, §7, §8

MARK1 = molecular target: T11, MARK1 (Homo sapiens, UniProt Q9P0L2); conditions: MARK1, 1 µM; read-out: Residual Activity (%)
T11 construct: purchased ProQinase
Protocol: as §1, §2, §3, §4, §5, §6, §7, §8

CAMK1D = molecular target: T12, CAMK1D (Homo sapiens, UniProt Q8IU85); conditions: read-out: Residual Activity (%)
T12 construct: purchased ProQinase
Protocol: as §1, §2, §3, §4, §5, §6, §7, §8

TRK-A = molecular target: T13, TRK-A (Homo sapiens, UniProt P04629); conditions: read-out: Residual Activity (%)
T13 construct: purchased ProQinase
Protocol: as §1, §2, §3, §4, §5, §6, §7, §8

SRMS = molecular target: T14, SRMS (Homo sapiens, UniProt Q9H3Y6); conditions: read-out: Residual Activity (%)
T14 construct: purchased ProQinase
Protocol: as §1, §2, §3, §4, §5, §6, §7, §8

TLK1 = molecular target: T15, TLK1 (Homo sapiens, UniProt Q9UKI8); conditions: TLK1, 1 µM; read-out: Residual Activity (%)
T15 construct: purchased ProQinase
Protocol: as §1, §2, §3, §4, §5, §6, §7, §8

HRI = molecular target: T16, HRI (Homo sapiens, UniProt Q9BQI3); conditions: read-out: Residual Activity (%)
T16 construct: purchased ProQinase
Protocol: as §1, §2, §3, §4, §5, §6, §7, §8

ROCK2 = molecular target: T17, ROCK2 (Homo sapiens, UniProt O75116); conditions: ROCK2, 1 µM; read-out: Residual Activity (%)
T17 construct: purchased ProQinase
Protocol: as §1, §2, §3, §4, §5, §6, §7, §8

PKC-theta = molecular target: T18, PKC-theta (Homo sapiens, UniProt Q04759); conditions: read-out: Residual Activity (%)
T18 construct: purchased ProQinase
Protocol: as §1, §2, §3, §4, §5, §6, §7, §8

NEK4 = molecular target: T19, NEK4 (Homo sapiens, UniProt P51957); conditions: NEK4, 1 µM; read-out: Residual Activity (%)
T19 construct: purchased ProQinase
Protocol: as §1, §2, §3, §4, §5, §6, §7, §8

PIM2 = molecular target: T20, PIM2 (Homo sapiens, UniProt Q9P1W9); conditions: PIM2, 1 µM; read-out: Residual Activity (%)
T20 construct: purchased ProQinase
Protocol: as §1, §2, §3, §4, §5, §6, §7, §8

p38-alpha = molecular target: T21, p38-alpha (Homo sapiens, UniProt Q16539); conditions: read-out: Residual Activity (%)
T21 construct: purchased ProQinase
Protocol: as §1, §2, §3, §4, §5, §6, §7, §8

CK2-alpha2 = molecular target: T22, CK2-alpha2 (Homo sapiens, UniProt P19784); conditions: CK2-alpha2, 1 µM; read-out: Residual Activity (%)
T22 construct: purchased ProQinase
Protocol: as §1, §2, §3, §4, §5, §6, §7, §8

INSR-R = molecular target: T23, INSR-R (Homo sapiens, UniProt P14616); conditions: read-out: Residual Activity (%)
T23 construct: purchased ProQinase
Protocol: as §1, §2, §3, §4, §5, §6, §7, §8

CAMKK1 = molecular target: T24, CAMKK1 (Homo sapiens, UniProt Q8N5S9); conditions: CAMKK1, 1 µM; read-out: Residual Activity (%)
T24 construct: purchased ProQinase
Protocol: as §1, §2, §3, §4, §5, §6, §7, §8

RIPK5 = molecular target: T25, RIPK5 (Homo sapiens, UniProt Q6XUX3); conditions: RIPK5, 1 µM; read-out: Residual Activity (%)
T25 construct: purchased ProQinase
Protocol: as §1, §2, §3, §4, §5, §6, §7, §8

MARK4 = molecular target: T26, MARK4 (Homo sapiens, UniProt Q96L34); conditions: MARK4, 1 µM; read-out: Residual Activity (%)
T26 construct: purchased ProQinase
Protocol: as §1, §2, §3, §4, §5, §6, §7, §8

STK23 = molecular target: T27, STK23 (Homo sapiens, UniProt Q9UPE1); conditions: STK23, 1 µM; read-out: Residual Activity (%)
T27 construct: purchased ProQinase
Protocol: as §1, §2, §3, §4, §5, §6, §7, §8

PHKG1 = molecular target: T28, PHKG1 (Homo sapiens, UniProt Q16816); conditions: PHKG1, 1 µM; read-out: Residual Activity (%)
T28 construct: purchased ProQinase
Protocol: as §1, §2, §3, §4, §5, §6, §7, §8

T16 sequence (Q9BQI3 whole entry): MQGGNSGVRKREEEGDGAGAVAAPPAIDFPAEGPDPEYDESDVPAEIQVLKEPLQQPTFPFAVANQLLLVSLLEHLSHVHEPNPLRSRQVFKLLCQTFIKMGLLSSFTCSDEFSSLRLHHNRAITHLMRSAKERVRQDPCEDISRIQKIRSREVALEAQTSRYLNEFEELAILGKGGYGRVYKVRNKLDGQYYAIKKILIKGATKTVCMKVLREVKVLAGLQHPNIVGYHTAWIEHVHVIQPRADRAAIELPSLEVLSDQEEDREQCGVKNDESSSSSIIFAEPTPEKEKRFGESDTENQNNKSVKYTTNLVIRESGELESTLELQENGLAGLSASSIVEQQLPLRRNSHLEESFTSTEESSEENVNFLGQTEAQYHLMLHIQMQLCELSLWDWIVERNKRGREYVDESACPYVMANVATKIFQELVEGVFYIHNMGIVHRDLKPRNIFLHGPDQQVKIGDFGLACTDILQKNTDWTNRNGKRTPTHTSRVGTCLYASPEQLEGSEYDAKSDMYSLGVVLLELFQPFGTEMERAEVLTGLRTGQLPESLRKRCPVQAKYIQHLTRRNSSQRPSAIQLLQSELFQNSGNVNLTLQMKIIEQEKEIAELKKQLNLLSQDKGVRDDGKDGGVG
T17 sequence (O75116 whole entry): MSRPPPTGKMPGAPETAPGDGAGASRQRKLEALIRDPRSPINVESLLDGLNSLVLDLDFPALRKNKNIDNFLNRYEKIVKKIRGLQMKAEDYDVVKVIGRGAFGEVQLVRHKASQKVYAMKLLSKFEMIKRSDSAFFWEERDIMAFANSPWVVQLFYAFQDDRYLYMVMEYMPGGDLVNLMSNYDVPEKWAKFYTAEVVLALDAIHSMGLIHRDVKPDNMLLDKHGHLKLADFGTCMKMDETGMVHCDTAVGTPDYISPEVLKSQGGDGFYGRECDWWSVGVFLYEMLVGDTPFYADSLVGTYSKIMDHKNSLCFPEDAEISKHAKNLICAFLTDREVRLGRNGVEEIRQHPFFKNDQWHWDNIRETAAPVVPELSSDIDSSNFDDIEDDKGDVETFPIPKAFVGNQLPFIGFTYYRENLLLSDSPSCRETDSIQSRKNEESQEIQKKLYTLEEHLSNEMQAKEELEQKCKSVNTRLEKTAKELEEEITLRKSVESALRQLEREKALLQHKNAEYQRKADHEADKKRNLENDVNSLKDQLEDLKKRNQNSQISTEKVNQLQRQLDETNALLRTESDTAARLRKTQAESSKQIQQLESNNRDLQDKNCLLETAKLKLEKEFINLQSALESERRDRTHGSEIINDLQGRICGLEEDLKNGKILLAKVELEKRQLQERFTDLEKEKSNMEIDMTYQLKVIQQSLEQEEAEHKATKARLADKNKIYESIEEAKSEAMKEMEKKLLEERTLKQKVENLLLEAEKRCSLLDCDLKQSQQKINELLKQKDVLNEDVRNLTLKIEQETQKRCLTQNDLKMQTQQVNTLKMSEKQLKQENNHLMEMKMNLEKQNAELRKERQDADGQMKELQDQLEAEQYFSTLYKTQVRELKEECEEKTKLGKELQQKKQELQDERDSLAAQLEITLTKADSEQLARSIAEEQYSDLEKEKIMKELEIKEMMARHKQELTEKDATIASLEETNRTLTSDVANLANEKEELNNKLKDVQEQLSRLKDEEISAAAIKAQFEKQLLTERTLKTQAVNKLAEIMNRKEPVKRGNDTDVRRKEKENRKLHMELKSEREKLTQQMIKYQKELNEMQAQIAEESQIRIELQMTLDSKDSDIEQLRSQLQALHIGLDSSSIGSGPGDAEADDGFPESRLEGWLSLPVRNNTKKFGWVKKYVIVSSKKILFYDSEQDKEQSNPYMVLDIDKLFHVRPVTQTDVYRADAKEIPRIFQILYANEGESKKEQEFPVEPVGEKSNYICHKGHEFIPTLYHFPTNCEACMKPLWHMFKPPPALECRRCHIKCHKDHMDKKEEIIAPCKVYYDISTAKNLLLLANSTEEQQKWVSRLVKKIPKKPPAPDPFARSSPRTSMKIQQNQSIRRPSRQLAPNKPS
T4 sequence (Q09013 whole entry): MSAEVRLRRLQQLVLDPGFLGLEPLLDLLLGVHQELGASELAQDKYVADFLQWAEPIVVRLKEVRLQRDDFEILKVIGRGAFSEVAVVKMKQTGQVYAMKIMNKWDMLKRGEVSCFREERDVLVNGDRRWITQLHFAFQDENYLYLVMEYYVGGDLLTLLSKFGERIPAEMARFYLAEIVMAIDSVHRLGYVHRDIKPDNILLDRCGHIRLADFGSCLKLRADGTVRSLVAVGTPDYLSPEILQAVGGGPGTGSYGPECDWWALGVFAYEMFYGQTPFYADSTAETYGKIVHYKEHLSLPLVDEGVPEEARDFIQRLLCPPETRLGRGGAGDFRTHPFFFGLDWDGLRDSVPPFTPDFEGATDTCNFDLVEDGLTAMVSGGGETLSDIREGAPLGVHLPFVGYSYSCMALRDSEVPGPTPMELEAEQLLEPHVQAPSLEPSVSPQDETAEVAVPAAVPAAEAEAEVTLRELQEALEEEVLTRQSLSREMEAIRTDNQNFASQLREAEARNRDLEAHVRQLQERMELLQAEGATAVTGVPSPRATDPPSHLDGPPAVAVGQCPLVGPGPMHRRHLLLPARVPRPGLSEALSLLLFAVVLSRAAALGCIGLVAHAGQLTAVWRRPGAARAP
T24 sequence (Q8N5S9 whole entry): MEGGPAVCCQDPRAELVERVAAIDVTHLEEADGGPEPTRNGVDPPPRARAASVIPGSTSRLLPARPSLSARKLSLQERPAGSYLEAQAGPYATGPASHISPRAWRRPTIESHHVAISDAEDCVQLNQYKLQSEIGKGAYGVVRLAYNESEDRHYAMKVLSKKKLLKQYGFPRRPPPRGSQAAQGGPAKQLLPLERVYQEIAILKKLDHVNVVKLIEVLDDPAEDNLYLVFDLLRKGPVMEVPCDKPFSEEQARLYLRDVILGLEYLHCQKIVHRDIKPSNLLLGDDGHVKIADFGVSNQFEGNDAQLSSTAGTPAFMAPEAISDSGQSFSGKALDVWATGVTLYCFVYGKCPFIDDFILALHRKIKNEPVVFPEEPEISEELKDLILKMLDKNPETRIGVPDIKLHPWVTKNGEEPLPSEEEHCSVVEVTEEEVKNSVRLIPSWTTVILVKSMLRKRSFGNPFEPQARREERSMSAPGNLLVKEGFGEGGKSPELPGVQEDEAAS
T14 sequence (Q9H3Y6 whole entry): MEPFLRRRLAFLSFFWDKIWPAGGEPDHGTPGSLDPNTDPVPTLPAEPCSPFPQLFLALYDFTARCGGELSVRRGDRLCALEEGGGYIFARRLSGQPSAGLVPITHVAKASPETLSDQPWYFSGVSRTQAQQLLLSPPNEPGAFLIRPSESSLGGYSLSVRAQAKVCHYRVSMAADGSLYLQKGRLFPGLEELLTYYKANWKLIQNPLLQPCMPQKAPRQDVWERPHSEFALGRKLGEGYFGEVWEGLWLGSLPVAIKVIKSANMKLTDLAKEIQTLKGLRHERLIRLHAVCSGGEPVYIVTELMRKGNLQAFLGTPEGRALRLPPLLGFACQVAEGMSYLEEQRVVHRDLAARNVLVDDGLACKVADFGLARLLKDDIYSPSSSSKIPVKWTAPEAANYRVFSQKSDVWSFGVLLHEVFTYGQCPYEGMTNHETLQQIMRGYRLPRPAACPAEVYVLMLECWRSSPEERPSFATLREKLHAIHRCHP
T2 sequence (Q9NR20 whole entry): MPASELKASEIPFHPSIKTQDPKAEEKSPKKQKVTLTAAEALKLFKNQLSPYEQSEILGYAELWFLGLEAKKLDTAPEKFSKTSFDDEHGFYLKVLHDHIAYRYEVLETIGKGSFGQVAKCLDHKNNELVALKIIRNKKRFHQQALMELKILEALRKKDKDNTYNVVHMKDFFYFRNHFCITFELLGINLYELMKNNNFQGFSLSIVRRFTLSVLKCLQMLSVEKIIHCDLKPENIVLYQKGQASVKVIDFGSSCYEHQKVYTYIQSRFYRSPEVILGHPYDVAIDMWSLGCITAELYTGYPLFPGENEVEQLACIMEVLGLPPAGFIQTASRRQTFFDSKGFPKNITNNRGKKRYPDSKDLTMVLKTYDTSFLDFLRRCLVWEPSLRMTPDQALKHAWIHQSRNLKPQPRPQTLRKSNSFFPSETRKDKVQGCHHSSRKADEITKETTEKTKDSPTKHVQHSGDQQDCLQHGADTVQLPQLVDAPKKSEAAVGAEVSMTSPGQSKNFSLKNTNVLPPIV
T21 sequence (Q16539 whole entry): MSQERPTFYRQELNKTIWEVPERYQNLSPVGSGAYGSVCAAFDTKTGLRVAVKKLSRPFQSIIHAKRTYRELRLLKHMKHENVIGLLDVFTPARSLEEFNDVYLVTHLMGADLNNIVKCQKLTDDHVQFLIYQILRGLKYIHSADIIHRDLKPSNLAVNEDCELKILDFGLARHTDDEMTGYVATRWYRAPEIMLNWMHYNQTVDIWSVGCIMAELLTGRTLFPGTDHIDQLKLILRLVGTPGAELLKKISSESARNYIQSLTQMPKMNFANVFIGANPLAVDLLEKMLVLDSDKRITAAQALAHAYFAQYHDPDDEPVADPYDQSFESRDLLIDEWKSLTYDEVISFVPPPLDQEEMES
T20 sequence (Q9P1W9 whole entry): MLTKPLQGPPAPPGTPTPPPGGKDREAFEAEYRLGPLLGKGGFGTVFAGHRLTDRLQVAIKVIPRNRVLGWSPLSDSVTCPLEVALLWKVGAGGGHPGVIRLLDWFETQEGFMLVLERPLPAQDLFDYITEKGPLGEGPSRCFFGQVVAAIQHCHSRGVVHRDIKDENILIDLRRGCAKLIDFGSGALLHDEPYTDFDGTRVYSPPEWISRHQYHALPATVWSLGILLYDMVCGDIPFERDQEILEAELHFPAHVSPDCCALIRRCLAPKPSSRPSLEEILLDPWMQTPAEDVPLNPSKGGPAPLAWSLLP

SMILES: COc1ccc(-c2cc(C(=O)Nc3cc(-c4c(-c5ccc(F)cc5)noc4C(C)C)ccn3)n(CC3NCC(O)C3O)c2)cc1 (stereo not shown) [29d]
- remaining activity at 1 µM (PYK2): 116%
- remaining activity at 1 µM (DYRK4): 80%
- remaining activity at 1 µM (WNK2): 103%
- remaining activity at 1 µM (DMPK): 93%
- remaining activity at 1 µM (FLT3): 87%
- remaining activity at 1 µM (CDK9/CycK): 97%
- remaining activity at 1 µM (MINK1): 82%
- remaining activity at 1 µM (CK1-gamma3): 74%
- remaining activity at 1 µM (ARK5): 100%
- remaining activity at 1 µM (mTOR): 127%
- remaining activity at 1 µM (MARK1): 80%
- remaining activity at 1 µM (CAMK1D): 89%
- remaining activity at 1 µM (TRK-A): 116%
- remaining activity at 1 µM (SRMS): 127%
- remaining activity at 1 µM (TLK1): 77%
- remaining activity at 1 µM (HRI): 93%
- remaining activity at 1 µM (ROCK2): 92%
- remaining activity at 1 µM (PKC-theta): 101%
- remaining activity at 1 µM (NEK4): 108%
- remaining activity at 1 µM (PIM2): 84%
- remaining activity at 1 µM (p38-alpha): 17%
- remaining activity at 1 µM (CK2-alpha2): 111%
- remaining activity at 1 µM (INSR-R): 89%
- remaining activity at 1 µM (CAMKK1): 89%
- remaining activity at 1 µM (RIPK5): 99%
- remaining activity at 1 µM (MARK4): 112%
- remaining activity at 1 µM (STK23): 96%
- remaining activity at 1 µM (PHKG1): 90%
